# Results reported in patent publication US11524000B2, “Targeting Mcl-1 to enhance DNA replication stress sensitivity for cancer therapy” (Emory University, priority 2017, dated 2022).
# Columns and labels:
# [1] = test system: RPA2 foci in WT MEF cells; experiment: RPA2 foci immunostaining in WT MEF cells (DNA end resection); type: cell-based
# Experimental: (§1) HR repair is initiated by DSB end resection that is mediated by the Mre11 complex, whereas Ku tightly bound to DNA ends blocks Mre11 DNA resection. As Mcl-1 negatively regulates Ku function via direct binding, Mcl-1 may reverse the Ku-mediated inhibitory effect on Mre11 complex-mediated DNA end resection. Mre11-Rad50 complex-mediated exonuclease activity was analyzed in the presence of increasing concentrations of Mcl-1 protein using 5′-32P-end-labeled fork DNA as a substrate. […] Ku heterodimer inhibited MR-mediated DNA resection (FIG. 2A, lane 3 vs. lane 2), which was gradually reversed by the addition of increasing concentrations of purified Mcl-1 protein in the presence of a constant amount of Ku protein (FIG. 2A, lane 3 vs. lanes 4-7). BSA was used as control and had no effect on DNA resection. […] In addition, RPA2 is an established reporter of DNA end resection during HR repair in cells. To further test the effect of Mcl-1 on DNA resection in cells, RPA2 foci formation following treatment with Hu, camptothecin (CPT), or IR was compared in WT and Mcl1−/− MEFs. […] RPA2 phosphorylation at Ser4 and Ser8 was analyzed by Western blot using the S4/S8 dual-site phosphospecific RPA2 antibody following exposure of MEF WT or MEF Mcl1−/− cells to IR, CPT, and Hu. […]
# [2] = test system: RPA2 phosphorylation at Ser4 and Ser8; experiment: RPA2 Ser4/Ser8 phosphorylation by Western blot in MEF cells; type: cell-based
# Experimental: as §1
# [3] = target: T1, Mcl-1/Ku complex (Homo sapiens, UniProt Q07820); experiment: Co-IP of Mcl-1/Ku interaction in H1299 cells; type: cell-based; settings: for Mcl-1/Ku interaction: time course 0, 0.5, 1, 2, 8, or 24 hours
# T1 construct: endogenous in cells; host or cells: H1299
# Experimental: (§2) To test whether replication stress affects the Mcl-1/Ku interaction, time course experiments were carried out. H1299 cells were treated with Hu or olaparib for various times (0, 0.5, 1, 2, 8, or 24 hours). The Mcl-1/Ku interaction and cell cycle were analyzed simultaneously at each time point. […] These findings indicate that, in addition to S/G2 cell cycle phase, Hu- or olaparib-induced DNA replication stress can also promote Mcl-1/Ku interaction.
# (§3) To assess whether Mcl-1 is essential for the effect of MI-223 on HR activity, Mcl-1 was knocked out from H1299 cells using CRISPR/Cas9 to generate Mcl-1-deficient cells. WT Mcl-1, Ku binding-deficient mutant ΔBH1, and empty vector control were exogenously expressed in Mcl-1-knockout H1299 (Mcl1−/− H1299) cells, followed by treatment with MI-223 for 24 hours and analysis of HR efficacy. […] Intriguingly, expression of exogenous WT Mcl-1 but not the Ku binding-deficient ΔBH1 Mcl-1 mutant in Mcl-1-deficient H1299 cells restored the inhibitory effect of MI-223 on HR activity.
# [4] = test system: Rad51 foci in H1299 cells; experiment: Rad51 foci immunostaining in H1299 cells; type: cell-based; settings: for induction of Rad51 foci: single agent
# Experimental: Rad51 foci were quantified by counting of at least 100 cells from each sample.
# (§4) To test whether inhibition of HR by MI-223 sensitizes cancer cells to DNA replication stress, H1299 cells were treated with olaparib or Hu in the absence or presence of MI-223, followed by analysis of Rad51 foci and clonogenic survival. […] Importantly, MI-223 suppression of HR DNA repair activity synergizes with olaparib or Hu to kill H1299 lung cancer cells (FIG. 4H).
# [5] = test system: H1299 cells; experiment: Cell cycle analysis of H1299 cells during replication stress time course; type: cell-based
# Experimental: as §2
# [6] = target: WT Mcl-1 protein (Homo sapiens, UniProt Q07820); experiment: Isothermal titration calorimetry (ITC), MI-223/Mcl-1 binding; settings: 1-site binding mode, read-out: binding constant (KD)
# Experimental: (§5) The binding constant (KD) value was determined by fitting of the titration curve to a 1-site binding mode
# (§6) To confirm the binding of MI-223 with Mcl-1, isothermal titration calorimetry (ITC) was used to measure MI-223/Mcl-1 binding. ITC is a direct, label- and immobilization-free technique that measures the binding affinity between proteins and small-molecule ligands that interact with each other, and can analyze binding constant (KD) values in the millimolar and nanomolar range. ITC experiments were performed to assess MI-223/Mcl-1 binding using an auto-iTC200 instrument. […] In addition to the binding constant (KD) value measured by ITC, we also used fluorescence polarization (FP) to measure the inhibitory constant (KI) value using a fluorescence-labeled PUMA BH3 peptide. The PUMA BH3 peptide was chose for this FP assay to evaluate Mcl-1/MI-223 binding because it has been reported to bind specifically to the […] of Mcl-1. […] Based on findings from both ITC (i.e., KD) and FP (i.e., KI), we conclude that MI-223 may directly bind to Mcl-1 with good affinity.
# [7] = target: T2, BH1 deletion Mcl-1 mutant protein (ΔBH1) (Homo sapiens, UniProt Q07820, DEL256-265); experiment: Isothermal titration calorimetry (ITC), BH1 deletion mutant; type: binding; settings: ITC assay
# T2 construct: made in house
# Experimental: as §5, §6
# [8] = target: Mcl-1 (Homo sapiens, UniProt Q07820); experiment: Fluorescence polarization (FP) assay with fluorescence-labeled PUMA BH3 peptide; settings: read-out: inhibitory constant (KI) of MI-223/Mcl-1 binding
# Experimental: as §6
# [9] = test system: HR activity in H1299 DR-GFP cells; experiment: HR repair efficiency in H1299 DR-GFP cells; type: cell-based
# [10] = test system: HR activity in U2OS DR-GFP cells; experiment: HR repair efficiency in U2OS DR-GFP cells; type: cell-based; settings: dose-dependent
# [11] = test system: HR efficacy in Mcl-1-deficient H1299 cells; experiment: HR efficacy in Mcl-1-knockout H1299 cells; type: cell-based; settings: 24 hours
# Experimental: as §3
# [12] = test system: H1299 lung cancer cells; experiment: Colony formation assay (clonogenic survival) in H1299 cells; type: cell-based
# Experimental: as §4
# [13] = test system: H1299 cells; experiment: Annexin V binding assay; type: cell-based
# [14] = test system: H1299 lung cancer xenografts; experiment: H1299 lung cancer xenograft tumor growth in nude mice; type: in vivo; settings: for suppression of lung tumor growth: vs single agent; for repression of lung cancer in vivo (tumor volume): single agent, 0, 20, 40, 80 and 120 mg/kg/day for 30 days
# Experimental: Nu/Nu nude mice with H1299 lung cancer xenografts were treated with increasing doses of MI-223 (0, 20, 40, 80 and 120 mg/kg/day) for 30 days (n=8 mice per group). Tumor volume was measured once every 2 days. After 30 days, the mice were sacrificed, and the tumors were removed and analyzed. […]
# [15] = test system: H1299 lung cancer xenografts; experiment: IHC staining of Ki-67 and γ-H2AX in xenograft tumor tissues; type: in vivo, mice
# [16] = Toxicity evaluation in treated xenograft mice (weight, blood chemistry, blood counts, histopathology); type: in vivo
# [17] = MI-223 in combination with Hu, compared with Hu alone
# [18] = MI-223 in combination with olaparib, compared with olaparib alone
# [19] = mice treated with MI-223 alone or in combination with olaparib or Hu
# T1 sequence (Q07820 whole entry, one chain of several): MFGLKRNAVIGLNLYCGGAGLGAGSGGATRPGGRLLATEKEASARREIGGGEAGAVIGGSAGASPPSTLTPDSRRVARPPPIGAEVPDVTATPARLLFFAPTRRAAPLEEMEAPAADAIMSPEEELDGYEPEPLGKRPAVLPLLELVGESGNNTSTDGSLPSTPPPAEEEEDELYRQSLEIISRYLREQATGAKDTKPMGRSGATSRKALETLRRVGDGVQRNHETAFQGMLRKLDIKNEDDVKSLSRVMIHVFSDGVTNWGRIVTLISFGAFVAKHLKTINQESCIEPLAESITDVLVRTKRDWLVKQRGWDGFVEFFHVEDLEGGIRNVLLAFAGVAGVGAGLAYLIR
# T2 sequence (Q07820 with tags, fused parts or gaps DEL256-265): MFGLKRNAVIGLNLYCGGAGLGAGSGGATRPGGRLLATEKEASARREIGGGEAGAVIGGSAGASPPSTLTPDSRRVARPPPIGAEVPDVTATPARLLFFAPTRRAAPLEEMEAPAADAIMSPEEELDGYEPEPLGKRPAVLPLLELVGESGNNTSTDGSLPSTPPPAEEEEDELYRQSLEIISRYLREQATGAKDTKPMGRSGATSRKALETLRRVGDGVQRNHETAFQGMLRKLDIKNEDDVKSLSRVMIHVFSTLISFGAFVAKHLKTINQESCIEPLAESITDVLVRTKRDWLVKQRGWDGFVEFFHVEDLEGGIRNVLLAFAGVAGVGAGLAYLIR
# Chain of WT Mcl-1 protein (Q07820 whole entry): as the sequence (Q07820 whole entry, one chain of several) above
# Chain of Mcl-1 (Q07820 whole entry): as the sequence (Q07820 whole entry, one chain of several) above
structure (smiles),measurement,setting,value
"CC[C@@]1(O)C(=O)OCc2c1cc1n(c2=O)Cc2cc3ccccc3nc2-1 [CPT, camptothecin]",RPA2 foci formation,[1]; CPT 1 μM for 1 hour,induced RPA2 foci formation
same,RPA2 phosphorylation at S4 and S8,[2]; CPT 1 μM for 1 hour,stimulated RPA2 phosphorylation
"NC(=O)NO [Hu, hydroxyurea]",Mcl-1/Ku interaction,[3],"increased at 2, 8, and 24 hours"
same,induction of Rad51 foci,[4],induced Rad51 foci
same,percentage of cells in S phase,[5]; 24-hour time point,enhanced
same,percentage of cells in S phase,[5]; short time points (2 and 8 hours),did not alter
same,RPA2 foci formation,[1]; Hu 0.2 mM for 24 hours,induced RPA2 foci formation
same,RPA2 phosphorylation at S4 and S8,[2]; Hu 0.2 mM for 24 hours,stimulated RPA2 phosphorylation
"CCOC1=CC=CC(=CNn2c(-c3ccccc3Cl)nc3ccccc3c2=O)C1=O [MI-223, 2-(2-chlorophenyl)-3-(((5-ethoxy-6-oxocyclohexa-2,4-dien-1-ylidene)methyl)amino)quinazolin-4(3H)-one]",Kd,[6],161 ± 7 nM
same,binding to ΔBH1 Mcl-1 mutant protein,[7],failed to bind
same,Ki,[8],193 ± 4.3 nM
same,disruption of Mcl-1/Ku complex,"[3]; increasing concentrations, 24 hours, co-IP with Mcl-1 antibody",disrupted the Mcl-1/Ku complex
same,HR activity,"[9]; H1299 DR-GFP cells, dose-dependent",potently inhibited HR activity
same,HR efficacy,"[9]; H1299 parental cells, 24 hours",dose-dependent reduction of HR efficacy
same,HR activity,[10],potently inhibited HR activity
same,HR efficacy,[11],no significant further effect
same,inhibition of Rad51 foci formation,"[4]; olaparib- or Hu-induced foci, MI-223 4 μM, 24 hours",strongly inhibited Rad51 foci formation
same,synergy in cell killing (colony formation),[12]; MI-223 in combination with Hu,synergizes
same,synergy in cell killing (colony formation),[12]; MI-223 in combination with olaparib,synergizes
same,apoptotic cell death,[13],did not induce significant apoptotic cell death
same,suppression of lung tumor growth,[14]; MI-223 40 mg/kg/d in combination with Hu 500 mg/kg,significantly greater efficacy than a single agent alone
same,suppression of lung tumor growth,"[14]; MI-223 40 mg/kg/d in combination with olaparib 40 mg/kg/d, 3 weeks",significantly greater efficacy than a single agent alone
same,repression of lung cancer in vivo (tumor volume),[14],potently represses lung cancer in vivo
same,Ki-67 in tumor tissues,[15]; [17],significant reduction of Ki-67
same,γ-H2AX in tumor tissues,[15]; [17],increased levels of γ-H2AX
same,Ki-67 in tumor tissues,[15]; [18],significant reduction of Ki-67
same,γ-H2AX in tumor tissues,[15]; [18],increased levels of γ-H2AX
same,histopathologic evaluation of normal tissues,"[16]; brain, heart, lung, liver, spleen, kidney, and intestine",no evidence of normal tissue toxicity
same,"increase in alanine transaminase, aspartate transaminase, or blood urea nitrogen",[16]; [19],no significant
same,"reduction in wbcs, rbcs, hemoglobin, or platelets",[16]; [19],no significant
same,weight loss,[16]; [19],no significant weight loss
"O=[N+]([O-])c1ccccc1C=NNC(=S)NN=Cc1ccccc1[N+](=O)[O-] [MI-361, N′-(2-nitrobenzylidene)-2-(2-nitrobenzylidene)hydrazine-1-carbothiohydrazide]",repression of lung cancer in vivo (tumor volume),[14],potently represses lung cancer in vivo
"O=C1C=CC=CC1=CNNc1nnc(NNC=C2C=CC=CC2=O)c2ccccc12 [MI-647, 6,6′-((phthalazine-1,4-diylbis(hydrazine-2,1-diyl))bis(methanylylidene))bis(cyclohexa-2,4-dien-1-one)]",repression of lung cancer in vivo (tumor volume),[14],potently represses lung cancer in vivo
"Cc1ccc(C)c(NC(=O)C(=O)C(C(=O)c2ccc3ccccc3c2)C2OC(=O)c3ccccc32)c1 (stereo not shown) [MI-985, N-(2,5-dimethylphenyl)-4-(naphthalen-2-yl)-2,4-dioxo-3-(3-oxo-1,3-dihydroisobenzofuran-1-yl)butanamide]",repression of lung cancer in vivo (tumor volume),[14],potently represses lung cancer in vivo
O=C(c1cc(Cc2n[nH]c(=O)c3ccccc23)ccc1F)N1CCN(C(=O)C2CC2)CC1 [olaparib],Mcl-1/Ku interaction,[3],"increased at 2, 8, and 24 hours"
same,induction of Rad51 foci,[4],induced Rad51 foci
same,percentage of S phase cells,[5]; time points tested,did not significantly affect
